# According to patent publication US11613527B2, “Enzyme inhibitors” (KalVista Pharmaceuticals Limited, priority 2019, dated 2023):
# Tests used:
# Assay type in all cases: biochemical
# Human FXIa = Human FXIa (Homo sapiens (Human), UniProt P03951); assay: Determination of the % inhibition for FXIa (fluorogenic substrate Z-Gly-Pro-Arg-AFC; 40 μM or IC50)
# Description: Selected compounds were further screened for inhibitory activity against the related enzyme FXIa. The ability of the compounds of formula (I) to inhibit FXIa may be determined using the following biological assay:
# Determination of the % Inhibition for FXIa
# (§1) FXIa inhibitory activity in vitro was determined using standard published methods (see e.g. Johansen et al., Int. J. Tiss. Reac. 1986, 8, 185; Shori et al., Biochem. Pharmacol., 1992, 43, 1209; Sturzebecher et al., Biol. Chem. Hoppe-Seyler, 1992, 373, 1025). Human FXIa (Enzyme Research Laboratories) was incubated at 25° C. with the fluorogenic substrate Z-Gly-Pro-Arg-AFC and 40 μM of the test compound (or alternatively at various concentrations of the test compound in order to determine IC50). Residual enzyme activity (initial rate of reaction) was determined by measuring the change in optical absorbance at 410 nm and the IC50 value for the test compound was determined.
# Human KLK1 = Human KLK1 (Homo sapiens (Human), UniProt P06870); assay: Determination of the IC50 for KLK1 (fluorogenic substrate H-DVal-Leu-Arg-AFC)
# Description: Selected compounds were further screened for inhibitory activity against the related enzyme KLK1. The ability of the compounds of formula (I) to inhibit KLK1 may be determined using the following biological assay:
# Determination of the IC50 for KLK1
# as §1, with “KLK1” for “FXIa”, “KLK1 (Callbiochem)” for “FXIa (Enzyme Research Laboratories)”, “H-DVal-Leu-Arg-AFC” for “Z-Gly-Pro-Arg-AFC”, “and” for “and 40 μM of the test compound (or alternatively at”, “compound.” for “compound in order to determine IC50).”
# Human plasma kallikrein = Human plasma kallikrein (Homo sapiens (Human), UniProt P03952); assay: Determination of the IC50 for plasma kallikrein (fluorogenic substrate H-DPro-Phe-Arg-AFC); conditions: class symbols A-D, read-out: IC50 (human PKal)
# Description: The ability of the compounds of formula (I) to inhibit plasma kallikrein may be determined using the following biological assay:
# Determination of the IC50 for Plasma Kallikrein
# as §1, with “Plasma kallikrein” for “FXIa”, “plasma kallikrein (Protogen)” for “FXIa (Enzyme Research Laboratories)”, “H-DPro-Phe-Arg-AFC” for “Z-Gly-Pro-Arg-AFC”, “and” for “and 40 μM of the test compound (or alternatively at”, “compound.” for “compound in order to determine IC50).”
# Human KLK1, sequence (P06870 25-262): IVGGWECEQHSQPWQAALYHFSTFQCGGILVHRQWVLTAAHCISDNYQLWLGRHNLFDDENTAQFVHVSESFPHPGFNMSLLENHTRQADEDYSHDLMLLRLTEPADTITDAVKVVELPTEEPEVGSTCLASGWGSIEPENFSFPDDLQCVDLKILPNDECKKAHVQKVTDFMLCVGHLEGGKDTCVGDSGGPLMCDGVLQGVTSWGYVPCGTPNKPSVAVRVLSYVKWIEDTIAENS
# Human plasma kallikrein, sequence (P03952 391-638): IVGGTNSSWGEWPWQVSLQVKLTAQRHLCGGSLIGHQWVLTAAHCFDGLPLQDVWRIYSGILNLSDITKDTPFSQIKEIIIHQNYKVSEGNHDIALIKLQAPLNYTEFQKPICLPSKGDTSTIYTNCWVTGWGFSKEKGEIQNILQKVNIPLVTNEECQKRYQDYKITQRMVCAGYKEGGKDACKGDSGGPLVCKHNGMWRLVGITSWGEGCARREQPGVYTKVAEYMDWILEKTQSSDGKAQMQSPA
# Human plasma kallikrein, sequence (P03952 20-390 partner): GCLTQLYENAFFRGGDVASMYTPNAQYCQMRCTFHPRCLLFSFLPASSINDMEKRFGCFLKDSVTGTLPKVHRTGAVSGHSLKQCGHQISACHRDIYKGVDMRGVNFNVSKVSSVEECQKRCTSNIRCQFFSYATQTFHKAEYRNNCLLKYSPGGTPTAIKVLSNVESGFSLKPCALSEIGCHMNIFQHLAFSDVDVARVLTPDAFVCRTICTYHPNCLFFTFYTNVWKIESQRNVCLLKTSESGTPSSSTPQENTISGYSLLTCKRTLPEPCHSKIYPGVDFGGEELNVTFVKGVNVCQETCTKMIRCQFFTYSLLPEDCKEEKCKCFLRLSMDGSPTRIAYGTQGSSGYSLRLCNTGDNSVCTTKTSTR
# Human FXIa, sequence (P03951 388-625): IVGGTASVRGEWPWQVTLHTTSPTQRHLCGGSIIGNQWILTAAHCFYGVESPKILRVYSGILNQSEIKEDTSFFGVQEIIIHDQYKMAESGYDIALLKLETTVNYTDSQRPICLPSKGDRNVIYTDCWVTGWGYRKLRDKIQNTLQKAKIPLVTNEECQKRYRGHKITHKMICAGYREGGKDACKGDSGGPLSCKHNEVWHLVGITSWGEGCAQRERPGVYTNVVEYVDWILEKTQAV
# Human FXIa, sequence (P03951 19-387 partner): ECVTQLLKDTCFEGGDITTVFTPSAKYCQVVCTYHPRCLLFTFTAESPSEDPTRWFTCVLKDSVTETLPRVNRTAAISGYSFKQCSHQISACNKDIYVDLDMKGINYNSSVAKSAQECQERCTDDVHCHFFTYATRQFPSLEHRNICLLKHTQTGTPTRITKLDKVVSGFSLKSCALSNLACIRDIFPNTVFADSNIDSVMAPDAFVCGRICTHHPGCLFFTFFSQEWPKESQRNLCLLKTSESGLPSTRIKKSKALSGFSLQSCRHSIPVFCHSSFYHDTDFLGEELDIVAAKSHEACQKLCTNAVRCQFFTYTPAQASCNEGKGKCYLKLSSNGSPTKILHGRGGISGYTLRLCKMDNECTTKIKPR
IC50 (Human FXIa),IC50 (Human KLK1),IC50 (Human plasma kallikrein),Structure (SMILES)
> 40 µM,> 40 µM,< 0.01 µM,"COc1ccc(-n2cc(C)nn2)c(CNC(=O)c2cnn(Cc3ccc4c(c3)CN(C)CC4)c2)c1F [Example 3, N-{[2-fluoro-3-methoxy-6-(4-methyl-1,2,3-triazol-1-yl)phenyl]methyl}-1-[(2-methyl-3,4-dihydro-1H-isoquinolin-7-yl)methyl]pyrazole-4-carboxamide]"
> 40 µM,> 40 µM,< 0.01 µM,"CCc1ncn(-c2ccc(OC)c(F)c2CNC(=O)c2cn(Cc3ccc4c(c3)CN(C)CC4)nc2COC)n1 [Example 6, N-{[6-(3-ethyl-1,2,4-triazol-1-yl)-2-fluoro-3-methoxyphenyl]methyl}-3-(methoxymethyl)-1-[(2-methyl-3,4-dihydro-1H-isoquinolin-7-yl)methyl]pyrazole-4-carboxamide]"
> 40 µM,> 40 µM,< 0.01 µM,"COCc1nn(Cc2ccc3c(c2)CN(C)CC3)cc1C(=O)NCc1c(-n2cncn2)ccc(OC)c1F [Example 7, N-{[2-fluoro-3-methoxy-6-(1,2,4-triazol-1-yl)phenyl]methyl}-3-(methoxymethyl)-1-[(2-methyl-3,4-dihydro-1H-isoquinolin-7-yl)methyl]pyrazole-4-carboxamide]"
> 40 µM,> 40 µM,0.01 to 0.03 µM,"COCc1nn(Cc2ccc3c(c2)CN(C)CC3)cc1C(=O)NCc1c(-n2ccc(C(F)(F)F)n2)ccc(OC)c1F [Example 8, N-({2-fluoro-3-methoxy-6-[3-(trifluoromethyl)pyrazol-1-yl]phenyl}methyl)-3-(methoxymethyl)-1-[(2-methyl-3,4-dihydro-1H-isoquinolin-7-yl)methyl]pyrazole-4-carboxamide]"
> 40 µM,> 40 µM,0.03 to 0.1 µM,"COCc1nn(Cc2ccc3c(c2)CN(C)CC3)cc1C(=O)NCc1c(-n2ccc(C3CC3)n2)ccc(OC)c1F [Example 9, N-{[6-(3-cyclopropylpyrazol-1-yl)-2-fluoro-3-methoxyphenyl]methyl}-3-(methoxymethyl)-1-[(2-methyl-3,4-dihydro-1H-isoquinolin-7-yl)methyl]pyrazole-4-carboxamide]"
> 40 µM,> 40 µM,< 0.01 µM,"COCc1nn(Cc2ccc3c(c2)CN(C)CC3)cc1C(=O)NCc1c(-n2ncnc2C)ccc(OC)c1F [Example 12, N-{[2-fluoro-3-methoxy-6-(5-methyl-1,2,4-triazol-1-yl)phenyl]methyl}-3-(methoxymethyl)-1-[(2-methyl-3,4-dihydro-1H-isoquinolin-7-yl)methyl]pyrazole-4-carboxamide]"
28.1 µM,> 40 µM,< 0.01 µM,"COCc1nn(Cc2ccc3c(c2)CN(C2CC2)CC3)cc1C(=O)NCc1c(-n2cc(C)nn2)ccc(OC)c1F [Example 14, 1-[(2-cyclopropyl-3,4-dihydro-1H-isoquinolin-7-yl)methyl]-N-{[2-fluoro-3-methoxy-6-(4-methyl-1,2,3-triazol-1-yl)phenyl]methyl}-3-(methoxymethyl)pyrazole-4-carboxamide]"
> 40 µM,> 40 µM,< 0.01 µM,"CCN1CCc2ccc(Cn3cc(C(=O)NCc4c(-n5cc(C)nn5)ccc(OC)c4F)c(COC)n3)cc2C1 [Example 16, 1-[(2-ethyl-3,4-dihydro-1H-isoquinolin-7-yl)methyl]-N-{[2-fluoro-3-methoxy-6-(4-methyl-1,2,3-triazol-1-yl)phenyl]methyl}-3-(methoxymethyl)pyrazole-4-carboxamide]"
> 40 µM,> 40 µM,< 0.01 µM,"COCc1nn(Cc2ccc3c(c2)CN(C(C)C)CC3)cc1C(=O)NCc1c(-n2cc(C)nn2)ccc(OC)c1F [Example 17, N-{[2-fluoro-3-methoxy-6-(4-methyl-1,2,3-triazol-1-yl)phenyl]methyl}-1-[(2-isopropyl-3,4-dihydro-1H-isoquinolin-7-yl)methyl]-3-(methoxymethyl)pyrazole-4-carboxamide]"
> 40 µM,> 40 µM,< 0.01 µM,"COCc1nn(Cc2ccc3c(c2)CN(C2CCC2)CC3)cc1C(=O)NCc1c(-n2cc(C)nn2)ccc(OC)c1F [Example 18, 1-((2-cyclobutyl-1,2,3,4-tetrahydroisoquinolin-7-yl)methyl)-N-(2-fluoro-3-methoxy-6-(4-methyl-1H-1,2,3-triazol-1-yl)benzyl)-3-(methoxymethyl)-1H-pyrazole-4-carboxamide]"
> 40 µM,> 40 µM,< 0.01 µM,"COCc1nn(Cc2ccc3c(c2)CN(C2CC2)CC3)cc1C(=O)NCc1c(-n2cnc(C(F)F)n2)ccc(OC)c1F [Example 19, 1-[(2-cyclopropyl-3,4-dihydro-1H-isoquinolin-7-yl)methyl]-N-({6-[3-(difluoromethyl)-1,2,4-triazol-1-yl]-2-fluoro-3-methoxyphenyl}methyl)-3-(methoxymethyl)pyrazole-4-carboxamide]"
> 40 µM,> 40 µM,0.01 to 0.03 µM,"COCc1nn(Cc2ccc3c(c2)CN(C2CC2)CC3)cc1C(=O)NCc1c(-n2cnc(C(F)(F)F)n2)ccc(OC)c1F [Example 20, 1-[(2-cyclopropyl-3,4-dihydro-1H-isoquinolin-7-yl)methyl]-N-({2-fluoro-3-methoxy-6-[3-(trifluoromethyl)-1,2,4-triazol-1-yl]phenyl}methyl)-3-(methoxymethyl)pyrazole-4-carboxamide]"
36.8 µM,> 40 µM,< 0.01 µM,"COCc1nn(Cc2ccc3c(c2)CN(C2CC2)CC3)cc1C(=O)NCc1c(-n2ccc(C#N)n2)ccc(OC)c1F [Example 21, N-{[6-(3-cyanopyrazol-1-yl)-2-fluoro-3-methoxyphenyl]methyl}-1-[(2-cyclopropyl-3,4-dihydro-1H-isoquinolin-7-yl)methyl]-3-(methoxymethyl)pyrazole-4-carboxamide]"
> 40 µM,> 40 µM,< 0.01 µM,"COCc1nn(Cc2ccc3c(c2)CN(C)CC3)cc1C(=O)NCc1c(-n2nc(C)nc2C)ccc(OC)c1F [Example 29, N-{[6-(dimethyl-1,2,4-triazol-1-yl)-2-fluoro-3-methoxyphenyl]methyl}-3-(methoxymethyl)-1-[(2-methyl-3,4-dihydro-1H-isoquinolin-7-yl)methyl]pyrazole-4-carboxamide]"
–,–,< 0.01 µM,"COc1ccc(-n2cc(C)nn2)c(CNC(=O)c2cn(Cc3ccc4c(c3)CN(C)CC4)nc2C(F)F)c1F [Example 33, 3-(difluoromethyl)-N-{[2-fluoro-3-methoxy-6-(4-methyl-1,2,3-triazol-1-yl)phenyl]methyl}-1-[(2-methyl-3,4-dihydro-1H-isoquinolin-7-yl)methyl]pyrazole-4-carboxamide]"
–,–,0.03 to 0.1 µM,"COCc1nn(Cc2ccc3c(c2)C(C)(C)NCC3)cc1C(=O)NCc1c(-n2cc(C)nn2)ccc(OC)c1F [Example 128, 1-[(1,1-dimethyl-3,4-dihydro-2H-isoquinolin-7-yl)methyl]-N-{[2-fluoro-3-methoxy-6-(4-methyl-1,2,3-triazol-1-yl)phenyl]methyl}-3-(methoxymethyl)pyrazole-4-carboxamide]"
–,–,0.01 to 0.03 µM,"COCc1nn(Cc2ccc3c(c2)C(C)(C)N(C)CC3)cc1C(=O)NCc1c(-n2cc(C)nn2)ccc(OC)c1F [Example 129, N-{[2-fluoro-3-methoxy-6-(4-methyl-1,2,3-triazol-1-yl)phenyl]methyl}-3-(methoxymethyl)-1-[(1,1,2-trimethyl-3,4-dihydroisoquinolin-7-yl)methyl]pyrazole-4-carboxamide]"
–,–,0.01 to 0.03 µM,"COCc1nn(Cc2ccc3c(c2)CNCC3(C)C)cc1C(=O)NCc1c(-n2cc(C)nn2)ccc(OC)c1F [Example 130, 1-[(4,4-dimethyl-2,3-dihydro-1H-isoquinolin-7-yl)methyl]-N-{[2-fluoro-3-methoxy-6-(4-methyl-1,2,3-triazol-1-yl)phenyl]methyl}-3-(methoxymethyl)pyrazole-4-carboxamide]"
–,–,0.01 to 0.03 µM,"COc1ccc(-n2cc(C)nn2)c(CNC(=O)c2cn(Cc3ccc4c(n3)CN(C)CC4)nc2C(F)(F)F)c1F [Example 131, N-{[2-fluoro-3-methoxy-6-(4-methyl-1H-1,2,3-triazol-1-yl)phenyl]methyl}-1-[(7-methyl-5,6,7,8-tetrahydro-1,7-naphthyridin-2-yl)methyl]-3-(trifluoromethyl)-1H-pyrazole-4-carboxamide]"
